The source made the active and inactive calls. No cut-off for these calls is given here.
What was measured:
Mus musculus [1] = organism: Mus musculus; assay: Inhibition of NMDA receptor in mouse synaptoneurosomes assessed as reduction of NMDA/glycine-induced calcium influx at 100 uM after 30 mins using Fura-2 AM by fluorescence assay relative to control
Mus musculus [2] = organism: Mus musculus; assay: Inhibition of voltage-gated calcium channel in mouse synaptoneurosomes assessed as reduction of KCl-induced calcium influx at 100 uM after 30 mins using Fura-2 AM by fluorescence assay relative to control

Row | Structure (SMILES) | inhibition (Mus musculus [1]) | inhibition (Mus musculus [2])
1 | C[C@]12N[C@H](Cc3ccccc31)c1ccccc12 | 100% | inactive
2 | NC12CC3CC(CC(C3)C1)C2 | 84.6% | 2.76%
3 | Nc1cccc(CNC23CC4CC(CC(C4)C2)C3)c1 | 48.3% | 30%
4 | O=[N+]([O-])c1ccccc1CNC12CC3CC(CC(C3)C1)C2 | 60.6% | 49.2%
5 | CC12CC3CC(C)(C1)CC(N)(C3)C2 | 92.5% | 5.2%
6 | Nc1ccccc1CNC12CC3CC(CC(C3)C1)C2 | 31.3% | 37.1%
7 | Nc1ccc(CNC23CC4CC(CC(C4)C2)C3)cc1 | 50.4% | 49.5%
8 | COc1cccc(CNC23CC4CC(CC(C4)C2)C3)c1 | 70.2% | 44.7%
9 | c1ccc(CNC23CC4CC(CC(C4)C2)C3)cc1 | 66.7% | 39.6%
10 | O=[N+]([O-])c1ccc(CNC23CC4CC(CC(C4)C2)C3)cc1 | 74.8% | 85.7%
11 | COCCOC(=O)C1=C(C)NC(C)=C(C(=O)OC(C)C)C1c1cccc([N+](=O)[O-])c1 (stereo not given) | inactive | 100%
12 | c1ccc(CCNC23CC4CC(CC(C4)C2)C3)cc1 | 89.5% | 42%
13 | c1ccc(CNC23OC4C5C6CC(C7C6C4C72)C53)cc1 (stereo not given) | 22.2% | 38.4%
14 | O=[N+]([O-])c1cccc(CNC23CC4CC(CC(C4)C2)C3)c1 | 36.6% | 14.3%
15 | COc1ccc(CNC23CC4CC(CC(C4)C2)C3)cc1 | 79.2% | 71.2%
